# In ChEMBL document CHEMBL1201862, “PubChem BioAssay data set” (2004):
#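 Cells were grown in 96-well plates and exposed to each compound for 48 hours at five concentrations; endpoints were interpolated linearly between bracketing concentrations, or set to the highest concentration if not reached. GI50 is the concentration that inhibits growth by half.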 The source made the active and inactive calls. No stated cut-off is given here; in the data, active = GI50 up to about 1.1 µM and inactive = higher.
# What was measured:
# Experiment in all cases: inhibition of tumour cell growth, NCI panel, 48 h
# [1] = test system: A498
# [2] = test system: PC-3
# [3] = test system: OVCAR-8
# [4] = test system: ACHN
# [5] = test system: HOP-62
# [6] = test system: OVCAR-3
# [7] = test system: SK-MEL-5
# [8] = test system: UACC-257
# [9] = test system: HCC 2998
# [10] = test system: MDA-MB-231
# [11] = test system: U-251
# [12] = test system: NCI-H522
# [13] = test system: K562
# [14] = test system: HT-29
# [15] = test system: SW-620
# [16] = test system: NCI-H460
# [17] = test system: SF-268
# [18] = test system: A549
# [19] = test system: UO-31
# [20] = test system: MDA-N
# [21] = test system: SF-539
# [22] = test system: HCT-15
# [23] = test system: HOP-92
# [24] = test system: CCRF-CEM
# [25] = test system: TK-10
# [26] = test system: KM12
# [27] = test system: SK-OV-3
# [28] = test system: NCI-H23
# [29] = test system: BT-549
# [30] = test system: MDA-MB-435
# [31] = test system: CAKI-1
# [32] = test system: RPMI-8226
# [33] = test system: HCT-116
# [34] = test system: Hs-578T
# [35] = test system: COLO 205
# [36] = test system: SF-295
# [37] = test system: DU-145
# [38] = test system: EKVX
# [39] = test system: SR
# [40] = test system: SN12C
# [41] = test system: SK-MEL-28
# [42] = test system: MCF7
# [43] = test system: IGROV-1
# [44] = test system: SNB-75
# [45] = test system: T47D
# [46] = test system: Malme-3M
# [47] = test system: HL-60
# [48] = test system: SK-MEL-2
# [49] = test system: SNB-19
# [50] = test system: M14
# [51] = test system: 786-0
# [52] = test system: LOX IMVI
# [53] = test system: NCI/ADR-RES
# [54] = test system: UACC-62
# [55] = test system: OVCAR-5
# [56] = test system: MOLT-4
# [57] = test system: NCI-H226
# [58] = test system: OVCAR-4
smiles,measurement,setting,value
S=C(N/N=C/c1ccccn1)N1CCCCCC1,GI50,[1],< 0.0391 µM (active)
same,GI50,[2],< 0.01 µM (active)
same,GI50,[3],< 0.01 µM (active)
same,GI50,[4],< 0.01 µM (active)
same,GI50,[5],< 0.01 µM (active)
same,GI50,[6],< 0.01 µM (active)
same,GI50,[7],< 0.0141 µM (active)
same,GI50,[8],< 0.01 µM (active)
same,GI50,[9],0.444 µM (active)
same,GI50,[10],< 0.01 µM (active)
same,GI50,[11],< 0.01 µM (active)
same,GI50,[12],< 0.0267 µM (active)
same,GI50,[13],< 0.01 µM (active)
same,GI50,[14],< 0.01 µM (active)
same,GI50,[15],< 0.01 µM (active)
same,GI50,[16],< 0.01 µM (active)
same,GI50,[17],< 0.0121 µM (active)
same,GI50,[18],< 0.0142 µM (active)
same,GI50,[19],0.0288 µM (active)
same,GI50,[20],0.0773 µM (active)
same,GI50,[21],< 0.0288 µM (active)
same,GI50,[22],< 0.01 µM
same,GI50,[23],0.0832 µM (active)
same,GI50,[24],< 0.01 µM (active)
same,GI50,[25],0.0101 µM (active)
same,GI50,[26],< 0.01 µM (active)
same,GI50,[27],< 0.01 µM (active)
same,GI50,[28],< 0.01 µM (active)
same,GI50,[29],< 0.01 µM (active)
same,GI50,[30],0.148 µM (active)
same,GI50,[31],< 0.0423 µM (active)
same,GI50,[32],< 0.01 µM (active)
same,GI50,[33],< 0.01 µM (active)
same,GI50,[34],11.5 µM (inactive)
same,GI50,[35],< 0.01 µM (active)
same,GI50,[36],0.124 µM (active)
same,GI50,[37],0.115 µM (active)
same,GI50,[38],< 0.0294 µM (active)
same,GI50,[39],< 0.01 µM (active)
same,GI50,[40],< 0.0192 µM (active)
same,GI50,[41],0.215 µM (active)
same,GI50,[42],< 0.01 µM (active)
same,GI50,[43],< 0.01 µM (active)
same,GI50,[44],0.0783 µM (active)
same,GI50,[45],< 0.01 µM (active)
same,GI50,[46],< 0.0392 µM (active)
same,GI50,[47],< 0.01 µM (active)
same,GI50,[48],0.0659 µM (active)
same,GI50,[49],0.416 µM (active)
same,GI50,[50],< 0.01 µM (active)
same,GI50,[51],< 0.01 µM (active)
same,GI50,[52],< 0.01 µM (active)
same,GI50,[53],< 0.01 µM (active)
same,GI50,[54],< 0.0245 µM (active)
same,GI50,[55],< 0.0458 µM (active)
same,GI50,[56],< 0.01 µM (active)
Nc1ccn(C2CC3OCC3O2)c(=O)n1 (stereo unspecified),GI50,[1],> 100 µM (inactive)
same,GI50,[2],> 100 µM (inactive)
same,GI50,[3],> 100 µM (inactive)
same,GI50,[4],> 100 µM (inactive)
same,GI50,[5],> 100 µM (inactive)
same,GI50,[6],> 100 µM (inactive)
same,GI50,[7],> 100 µM (inactive)
same,GI50,[8],> 100 µM (inactive)
same,GI50,[10],> 100 µM (inactive)
same,GI50,[11],> 100 µM (inactive)
same,GI50,[12],> 100 µM (inactive)
same,GI50,[13],> 100 µM (inactive)
same,GI50,[14],> 100 µM (inactive)
same,GI50,[15],> 100 µM (inactive)
same,GI50,[16],> 100 µM (inactive)
same,GI50,[17],> 100 µM (inactive)
same,GI50,[18],> 100 µM (inactive)
same,GI50,[19],> 100 µM (inactive)
same,GI50,[20],> 100 µM (inactive)
same,GI50,[21],> 100 µM (inactive)
same,GI50,[22],> 100 µM
same,GI50,[24],> 100 µM (inactive)
same,GI50,[25],> 100 µM (inactive)
same,GI50,[26],> 100 µM (inactive)
same,GI50,[27],> 100 µM (inactive)
same,GI50,[28],> 100 µM (inactive)
same,GI50,[29],> 100 µM (inactive)
same,GI50,[30],> 100 µM (inactive)
same,GI50,[57],> 100 µM (inactive)
same,GI50,[31],> 100 µM (inactive)
same,GI50,[32],> 100 µM (inactive)
same,GI50,[33],> 100 µM (inactive)
same,GI50,[34],> 100 µM (inactive)
same,GI50,[35],> 100 µM (inactive)
same,GI50,[36],> 100 µM (inactive)
same,GI50,[37],> 100 µM (inactive)
same,GI50,[38],> 100 µM (inactive)
same,GI50,[39],> 100 µM (inactive)
same,GI50,[40],> 100 µM (inactive)
same,GI50,[41],> 100 µM (inactive)
same,GI50,[42],> 100 µM (inactive)
same,GI50,[43],> 100 µM (inactive)
same,GI50,[44],> 100 µM (inactive)
same,GI50,[58],> 100 µM (inactive)
same,GI50,[45],> 100 µM (inactive)
same,GI50,[47],> 100 µM (inactive)
same,GI50,[48],> 100 µM (inactive)
same,GI50,[49],> 100 µM (inactive)
same,GI50,[50],> 100 µM (inactive)
same,GI50,[51],> 100 µM (inactive)
same,GI50,[52],> 100 µM (inactive)
same,GI50,[53],> 100 µM (inactive)
same,GI50,[54],> 100 µM (inactive)
same,GI50,[55],> 100 µM (inactive)
same,GI50,[56],> 100 µM (inactive)
